Test results taken from a melting point compilation (Tetko et al.; mined from patent text by program, amines drawn as free bases though some values may be those of a salt).

Compared with `COc1cc2c(cc1OC)C(Oc1ccccc1)CN(NC(=O)c1cc(Cl)cc(Cl)c1)CC2` (centres undefined), `COc1ccc(-c2c(Cl)c(CNC(C)=O)nc3sc4c(c23)CCN(Cc2ccccc2)C4)cc1OC` is lower in melting point: 184 to 185 °C for the first, 172 to 174 °C for the second.

First: CC(C)NC(=O)c1ccc(C(=O)N2CCN(c3ncccc3N)CC2)nc1
Second: COC(=O)c1cc(N)c(N2CCCCC2)c(N)c1
The melting point of the first is higher: 142 to 143 °C for the first, 133 to 134 °C for the second.

Compared with `COc1nc(C(F)(F)F)cc(=O)n1-c1ccc(Cl)c(C(=O)O)c1`, `CC(C)Sc1cn(C)cc(-c2ccc(Cl)c(C(F)(F)F)c2)c1=O` is lower in melting point: 265 to 268 °C for the first, 127 to 129 °C for the second.

Compared with `CCC=Cc1ncc(/C=C(\Cc2cccs2)c2nnn[nH]2)n1Cc1ccccc1Cl`, `O=C(c1cccs1)c1cnn2c(-c3cccc(NC(=O)C4CC4)c3)ccnc12` is higher in melting point: 182 to 184 °C for the first, 191 to 192 °C for the second.

First: Oc1ccc2c(CCC3CCN(Cc4ccccc4)CC3)noc2c1
Second: OC1(c2ccccc2)CCN(CCc2c[nH]c3ccccc23)CC1
The melting point of the first is higher: 148 to 149 °C for the first, 133 to 137 °C for the second.

First: Cn1cnc(COc2nn3c(-c4cnccn4)nnc3cc2-c2ccccc2)n1
Second: O=C(O)c1cc(OCc2ccsc2)c(-c2ccccc2)c([N+](=O)[O-])c1
The melting point of the first is higher: 257 to 258 °C for the first, 184 to 186 °C for the second.

Compared with `NC(=O)c1c(Cl)c(-c2ccccc2)n2c1CN(S(=O)(=O)Nc1ccc(C(F)(F)F)cc1)CC2`, `COC(=O)c1cc(C(=O)N[C@@H](Cc2ccccc2)[C@H]2CN(C3(c4cccc(C(F)(F)F)c4)CC3)C(=O)O2)n2c1CN(S(C)(=O)=O)CC2` is lower in melting point: 209 to 211 °C for the first, 104 °C for the second.

First: CCCc1n[nH]c2ccc(C(=O)O)cc12
Second: O=C(O)c1ccc(CCCBr)cc1
The melting point of the first is higher: 296 to 299 °C for the first, 120 °C for the second.

First: CC(C)Cn1c(=O)n(C)c(=O)c2c(Sc3ccc(N)cn3)c(Cc3cccc4ccccc34)sc21
Second: CNC(=O)S(=O)(=O)Nc1sc(CC(C)C)cc1-c1ccc(Cn2c(-c3ccccc3)nc(OC)c2C=O)cc1
The melting point of the first is higher: 208 to 209 °C for the first, 102 to 103 °C for the second.

First: CCCCCCCCCCCCCCCCCC(=O)SC1CCN(C(C(=O)OC)c2ccccc2F)CC1 (centres undefined)
Second: CCCc1cc(C(=O)O)ccc1OCCCCCCc1cccc(O)c1O
The melting point of the first is lower: 50 to 52 °C for the first, 123 to 124 °C for the second.

Compared with `CC1(CS)C(=O)N2CCCC(C(=O)O)N2C1=O` (centres undefined), `CN1C(=O)NC(=O)C1=Cc1cc(OCCCC(=O)N(C)C2CCCCC2)ccc1[N+](=O)[O-]` is lower in melting point: 209 to 211 °C for the first, 149 to 154 °C for the second.

First: Cc1oc(-c2ccccc2)nc1COc1ccc(Cn2cc(CCC(=O)O)c(-c3ccc(F)cc3)n2)cc1
Second: O=C(O)c1ccc(OCCNC(=O)C2Cc3ccccc3N2S(=O)(=O)c2ccc(-c3cc(C(F)(F)F)ccc3Cl)cc2)cc1 (centres undefined)
The melting point of the first is higher: 139 to 140 °C for the first, 117 to 121 °C for the second.

First: CC(C)(C)OC(=O)N1COC(=O)[C@@H]1CSCc1ccccc1
Second: C=CC(=O)NC(Cc1ccccc1)C(=O)O (centres undefined)
The melting point of the first is lower: 63 to 65 °C for the first, 136 to 138 °C for the second.

First: CC(=C1SC(=O)NC1=O)c1ccc(OCCOc2c(-c3cc(F)ccc3C)n(C)c3ccccc3c2=O)cc1
Second: Cc1ccc(C=COc2cccc3c2C(=O)c2ccccc2C3=O)cc1
The melting point of the first is higher: 192 to 196 °C for the first, 88 to 90 °C for the second.

First: NS(=O)(=O)c1cccc2c1C(Cl)=CC2
Second: O=C1C(Cl)=C(NC2CCCC2)C(=O)c2ccccc21
The melting point of the first is higher: 100 to 101 °C for the first, 81 to 83 °C for the second.

Compared with `Cc1[nH]c2ccc(C(=O)NS(=O)(=O)CCCCl)cc2c1Cc1ccc(Cl)cc1Cl`, `COc1cc(NS(=O)(=O)c2ccc(Cl)cc2)c(C(=O)Cl)cc1OC` is higher in melting point: 95.5 to 96.2 °C for the first, 175 to 177 °C for the second.

First: Cc1cccc(C(=O)Cc2ccnc(NC(=O)c3ccccc3)c2)c1
Second: O=C(Nc1ccc(S(=O)(=O)Cl)cc1)c1ccccc1
The melting point of the first is lower: 67 to 69 °C for the first, 176 to 178 °C for the second.

`Cc1nc2cc3c(cc2s1)C1(CO3)C(=O)Nc2ccccc21` (centres undefined) and `COc1ccc2c(c1)C(=O)c1c-2c(O)nc2ccccc12` cannot be ordered by melting point: over 250 °C for the first, 294 to 296 °C for the second.

Compared with `Nc1c(-c2ccc(I)cc2)nc2ccc(Cl)cc2c1C(=O)O`, `CS(=O)CC(C)(C)NC(=O)c1c(I)cccc1-c1ccc(C(F)(F)F)cc1` (centres undefined) is lower in melting point: 243 to 245 °C for the first, 155 to 158 °C for the second.

First: O=CNc1nc(C(=NOC(=O)C(Cl)Cl)C(=O)O)ns1
Second: COc1cscc1NC=O
The melting point of the first is higher: 123 °C for the first, 95 to 97 °C for the second.

First: C=C(C)Cc1cc(C=O)cc(OC)c1O
Second: Cn1cc(Cl)c2cc(C=O)ccc21
The melting point of the first is lower: 53 to 54 °C for the first, 109 °C for the second.

First: CC(C)CCc1c(-c2ccc(S(C)(=O)=O)cc2)cnn(-c2ccc(F)cc2)c1=O
Second: CC(C)CCCc1c(C(C)C)nc(C(C)C)c(CO)c1-c1ccc(F)cc1
The melting point of the first is higher: 151 to 154 °C for the first, 101 to 103 °C for the second.

First: CC(=O)Oc1ccc(C(=O)Oc2ccc(OC(=O)c3ccc(OC(C)=O)cc3)cc2)cc1
Second: C=C(COc1ccc(C(=O)CCC(=O)OC)cc1)COc1ccc(C(C)=O)c(O)c1CCC
The melting point of the first is higher: 185 to 186 °C for the first, 89 to 90 °C for the second.

First: Cc1c(NC(=O)c2ccc(OC[C@@H]3CCCO3)cc2)ccc2cc(CNC3CCC3)cnc12
Second: CC(=O)Nc1ccc(OCC2CO2)c(C(=O)Nc2cccc3[nH]ccc23)c1 (centres undefined)
The melting point of the first is lower: 142 to 144 °C for the first, 230 °C for the second.

First: CC(=O)c1cc(Cl)c(O)c2ncccc12
Second: CC(C)(C)[Si](C)(C)Oc1c(I)cc(Cl)c2cccnc12
The melting point of the first is higher: 163 to 166 °C for the first, 65 to 67 °C for the second.

Compared with `CC(=O)Nc1cc(S(=O)(=O)c2ccccc2)ccc1NC(=O)C(C)(O)C(F)(F)F` (centres undefined), `CCCCNc1cc(CNC(=O)OCC)cc(S(N)(=O)=O)c1Oc1ccccc1` is lower in melting point: 205 to 207 °C for the first, 105 to 107 °C for the second.

First: COc1ccc(C2CCOCC2)c2sc(NC(=O)N3CCOCC3)nc12
Second: CC(C)(C)OC(=O)Nc1cc(N2CCOCC2)c(I)cc1N
The melting point of the first is higher: 217 to 220 °C for the first, 139 to 143 °C for the second.

Compared with `COc1cc(C)nc(NC(=O)NS(=O)(=O)c2cccc3nc(C)sc23)n1`, `COC(=O)C1COC(c2ncn3c2CN(C)C(=O)c2c(Cl)cccc2-3)=N1` (centres undefined) is higher in melting point: 178 to 180 °C for the first, 216 to 218 °C for the second.

First: CC(=O)c1cccc(NC(=O)c2ccc3c(c2)CC(COCc2ccccc2)O3)c1O (centres undefined)
Second: COc1cccc(C(=O)Nc2nc(C(=O)c3ccc([N+](=O)[O-])c(OC)c3)n3ccccc23)c1
The melting point of the first is lower: 103 to 105 °C for the first, 167 °C for the second.

First: CCCN(CCC)C1Cc2cc3c(cc2C1)C(=O)N(c1ccc(C#N)cc1)C3=O
Second: CCCOc1ccccc1-c1[nH]c(=O)c(C(N)=O)cc1C
The melting point of the first is higher: 250 to 251 °C for the first, 238 to 240 °C for the second.

Compared with `CC1=NC(C)(C)SC1=NOC(=O)N(C)C`, `COc1cccc2c(Cl)c(C(=O)C(C)C)cnc12` is lower in melting point: 92 to 95 °C for the first, 90 to 92 °C for the second.

Compared with `NC(CCNCCC(N)=NO)=NO`, `C=CCc1cc(CC(N)=O)ccc1OCC(O)CNCCC(=O)OCC` (centres undefined) is lower in melting point: 180 °C for the first, 98 °C for the second.

Compared with `CC(=O)NCCCCc1ccc(C(=O)C(C)Cl)cc1` (centres undefined), `CC(=O)N[C@@H](CC(C)C)C(=O)N[C@@H](C(C)C)[C@@H](O)c1c(-c2ccccc2)c1=O` is higher in melting point: 66 to 67 °C for the first, 94 to 105 °C for the second.

Going from `COC(=O)[C@H]1OC(OC(=O)c2ccc(/C=C(\C)c3ccc4c(c3)C(C)(C)CCC4(C)C)cc2)[C@H](OC(C)=O)[C@@H](OC(C)=O)[C@@H]1OC(C)=O` (some centres undefined) to `CC(C)COC(=O)c1ccc(OCC(=NO)c2ccc3c(c2)C(C)(C)CCC3(C)C)cc1O`, the melting point falls from 161 °C to 96 °C.

Compared with `CNc1nc(Br)cc(Sc2ccc([N+](=O)[O-])cc2)n1`, `CNc1cc(N)c(C(=O)O)cc1[N+](=O)[O-]` is higher in melting point: 204 to 205 °C for the first, 260 to 272 °C for the second.

Compared with `CCCCNS(=O)(=O)CC(O)(CCCC)C(N)C(O)CC1CCCCC1` (centres undefined), `CC(=O)NC12CCCC(C1)C1CCC2C1` (centres undefined) is lower in melting point: 164 to 165 °C for the first, 138 to 139 °C for the second.

First: CSC1Cc2cc(Cl)ccc2C1=O (centres undefined)
Second: CN(C)c1ccc([N+](=O)[O-])c(CO)c1
The melting point of the first is lower: 90 °C for the first, 138 to 139 °C for the second.

First: NC(=O)c1cnccc1-c1ccccc1C(=O)N1Cc2ccccc2Cc2ccccc21
Second: O=C(O)COCCCCC1CCCN1c1cnc(-c2ccccc2)c(-c2ccccc2)n1 (centres undefined)
The melting point of the first is higher: 217 to 220 °C for the first, 138 to 140 °C for the second.

Compared with `CCOCn1c(-c2sc(Cl)c(Cl)c2Cl)c(C#N)c(Br)c1C(F)(F)F`, `CCOC=Nc1sc2c(c1C#N)CCN(C)C2` is higher in melting point: 85 to 87 °C for the first, 88 to 89 °C for the second.

First: ClCc1cc(I)cc(I)c1I
Second: N=C(NO)c1cnc(Cl)c(Cl)c1
The melting point of the first is lower: 97 to 98 °C for the first, 182 to 184 °C for the second.

First: N#Cc1ccc(O)c(O)c1O
Second: CC(C)COc1ccccc1-c1ncc(C#N)c(=O)[nH]1
The melting point of the first is lower: 172 °C for the first, 186 to 187 °C for the second.

Compared with `C#CCOc1cc(-n2c(=O)nc(N(C)C)n(C)c2=O)c(F)cc1Cl`, `CCOC(=O)CC(=O)c1cc(F)c(N=[N+]=[N-])nc1Nc1ccc(F)cc1F` is higher in melting point: 61 to 65 °C for the first, 130 to 131 °C for the second.

First: NS(=O)(=O)NCC=Cc1ccccc1
Second: Sc1nc2cccccc-2n1
The melting point of the first is lower: 118 °C for the first, 300 °C for the second.

Compared with `CN=C(NC#N)N1CCc2[nH]cnc2C1`, `CC(CC#N)CN1C(=O)c2ccccc2S1(=O)=O` (centres undefined) is lower in melting point: 240 °C for the first, 83 to 84 °C for the second.

First: COc1cc2c(cc1OC)C(C=Cc1ccc(N(C)C)cc1)=NN=C(C)C2
Second: COc1ccc(C2=NN(C3CCN(S(=O)(=O)c4ccccc4C)CC3)C(=O)C(C)(C)C2)cc1OC
The melting point of the first is higher: 170 to 172 °C for the first, 132 to 133 °C for the second.

First: Cc1ccc2c(c1)C=Cc1cc(C)ccc1C2c1cn(-c2ccnc(NCC(=O)O)n2)c(=O)[nH]c1=S
Second: Cc1cc2oc(=O)c(NC(=O)Nc3ccc(Cl)cc3)c(-c3ccccc3C)c2cc1C
The melting point of the first is lower: 205 °C for the first, 234 to 236 °C for the second.

Compared with `COc1ccnc(C(=O)N[C@H]2COC[C@H](OCCC(C)C)[C@@H](OCCC(C)C)[C@H](C)OC2=O)c1O`, `CC(C)c1cc(OCCOCc2ccccc2)cc2c1C(=O)N(CCl)S2(=O)=O` is higher in melting point: 61 to 70 °C for the first, 101 to 102 °C for the second.

Compared with `CN(CCc1ccncc1)C(=O)CCSc1cc(C(C)(C)C)c(O)c(C(C)(C)C)c1`, `COC(=O)C(C(=O)OC)[C@H]1C=Cc2ccccc2[C@H]1O` (relative stereo) is lower in melting point: 129 to 132 °C for the first, 65 to 67 °C for the second.

Compared with `NCCSC(c1ccccc1)c1ccccc1`, `O=COC(Cc1ccccc1)C1C(=O)NC1SC(c1ccccc1)(c1ccccc1)c1ccccc1` (centres undefined) is higher in melting point: 74 °C for the first, 169 to 171 °C for the second.

In the case of `CCOC(=O)c1cc(CN)c[nH]1`, the melting point is reported as 78 to 79 °C.
